From US4535089A, “Alkyloxazolylacetic acid derivative for the treatment of hyperlipidemia” (Tanabe Seiyaku Co., Ltd., priority 1982, dated 1985)

Legend:
[1] = test system: serum cholesterol; test: Hypolipidemic activity: decrease in serum cholesterol; format: in vivo; details: 50 mg % in diet, one week, male SD rats
Procedure: (§1) A test compound (50 mg %) was added to a commercial diet, and male SD rats (body weight: 120-140 g, a group of 5 rats) were fed with the diet ad libitum for one week. After the experimental period, blood was collected from the tail vein of the rats under ether anesthesia. Then, liver was excised from the rats and the weight thereof was measured. On the other hand, serum cholesterol and serum triglyceride were measured according to the methods of Zak (Amer. J. Clin. Pathol., Vol. 24, page 1307(1954)) and Van Handel-Zilversmit (J. Lab. & Clin. Med., Vol. 50, page 152(1957)), respectively. Based on the results obtained above, the decrease (%) in serum cholesterol or triglyceride and increase (%) in liver weight were calculated by the following formulae: [formula]

[2] = test system: serum triglyceride; test: Hypolipidemic activity: decrease in serum triglyceride; format: in vivo; details: 50 mg % in diet, one week, male SD rats
Procedure: as §1

[3] = test system: liver; test: Increase in liver weight (hypolipidemic experiment); format: in vivo; details: 50 mg % in diet, one week, male SD rats
Procedure: as §1

[4] = test system: platelet aggregation; test: Platelet aggregation-inhibiting activity after oral administration (ex vivo); format: in vivo; details: Rattus norvegicus, 1 h, 100 mg/kg oral, blood collected one hour after administration, SD rats, read-out: Percentage inhibition of platelet aggregation (%)
Procedure: Blood was collected from the abdominal aorta of male SD rats (body weight: 250-300 g) which were anesthetized with ether. Nine volumes of said blood were mixed with one volume of an aqueous 3.8% (w/v) trisodium citrate solution, and the mixture was centrifuged at 500×g for 5 minutes to give platelet-rich plasma (hereinafter referred to as "PRP") as the supernatant solution. The bottom layer was further centrifuged at 1000×g for 10 minutes to give platelet-poor plasma (hereinafter referred to as "PPP") as the supernatant solution. […] After the mixture was stirred at 1100 rpm at 37° C. for 2 minutes, 25 μl of a collagen solution (prepared by Holmsen's method described in Biochim. Biophys. Acta, Vol. 186, page 254(1969)) was added thereto, and the percentage inhibition of platelet aggregation was calculated in accordance with the following formula from the degree of the platelet aggregation which was estimated by Born's method (Nature, 194, page 927(1962)). […]
A test compound was suspended in a solution containing 0.25% of carboxymethylcellulose (sodium salt) and 0.01% of Tween 80, and the suspension was administered orally to make SD rats (a group of 4 rats). […] Thereafter, said blood was treated in the same manner as described in Experiment 2, and the percentage inhibition of platelet aggregation was calculated in accordance with the following formula: [formula]

[5] = test system: platelet aggregation; test: Platelet aggregation-inhibiting activity in vitro (collagen, platelet-rich plasma); format: cell-based, male SD rats; details: final concentration 100 μg/ml, rat PRP, 37° C.
Procedure: Blood was collected from the abdominal aorta of male SD rats (body weight: 250-300 g) which were anesthetized with ether. Nine volumes of said blood were mixed with one volume of an aqueous 3.8% (w/v) trisodium citrate solution, and the mixture was centrifuged at 500×g for 5 minutes to give platelet-rich plasma (hereinafter referred to as "PRP") as the supernatant solution. The bottom layer was further centrifuged at 1000×g for 10 minutes to give platelet-poor plasma (hereinafter referred to as "PPP") as the supernatant solution. PRP was diluted with PPP so that the blood platelet count was 8-10×10^5 cells/mm^3.Then, a mixture of 200 μl of said diluted PRP and 25 μl of a test compound solution (final concentration: 100 μg/ml) was introduced into a glass cell of SIENCO aggregometer (Sienco Inc., Morrison, Colo. Model DP-247-D). After the mixture was stirred at 1100 rpm at 37° C. for 2 minutes, 25 μl of a collagen solution (prepared by Holmsen's method described in Biochim. Biophys. Acta, Vol. 186, page 254(1969)) was added thereto, and the percentage inhibition of platelet aggregation was calculated in accordance with the following formula from the degree of the platelet aggregation which was estimated by Born's method (Nature, 194, page 927(1962)). [formula]

[6] = test system: mice; test: Acute oral toxicity in mice; format: in vivo; details: 1000 mg/kg oral, 7 days after administration
Text: The compound (I) (R^2 =H) of the present invention can be used for pharmaceutical use in the form of either a free acid or a pharmaceutically acceptable salt thereof. Pharmaceutically acceptable salts of the compound (I) (R^2 =H) include, for example, alkali metal salts such as sodium and potassium salts; alkaline earth metal salts such as calcium and magnesium salts; salts thereof with amino acids such as lysine, ornithine, arginine and histidine salts; and ammonium salt. Such pharmaceutically acceptable salts may be prepared, for example, by neutralizing the free acid with a stoichiometrically equimolar amount of a base such as an alkali metal hydroxide, an alkaline earth metal hydroxide, ammonia or a basic amino acid. The compound (I) and a salt thereof can be administered either orally or parenterally. For oral administration, the compound (I) or a salt thereof may be used in the form of tablets, powder, capsules, granules and the like. Known medicinal excipients such as calcium carbonate, calcium phosphate, corn starch, potato starch, sugar, lactose, talc, magnesium stearate and so forth may be used in making these pharmaceutical preparations. Alternatively, the compound (I) or a salt thereof may be used for oral administration in the form of aqueous or oily suspensions, solutions, syrps or elixirs. […]

increase (%) in liver weight [3]	SMILES	Decrease (%) in serum cholesterol [1]	Decrease (%) in serum triglyceride [2]	inhibition at 100 mg/kg [4]	inhibition at 100 µg/mL [5]	mortality [6]
–	CCCCCc1oc(-c2ccc(Cl)cc2)nc1CC(=O)O [2-[2-(4-chlorophenyl)-5-n-pentyl-4-oxazolyl]acetic acid]	19%	60%	–	–	–
12%	CCOC(=O)C(C)(C)Oc1ccc(Cl)cc1 [Clofibrate, 2-(4-chlorophenoxy)-2-methylpropanoic acid ethyl ester, reference compound]	15%	16%	53 ± 19%	< 10%	–
–	CCOC(=O)Cc1nc(-c2ccc(Cl)cc2)oc1C [ethyl 2-[2-(4-chlorophenyl)-5-methyl-4-oxazolyl]acetate]	19%	36%	–	–	no mouse dies
–	CC(C)c1oc(-c2ccc(F)cc2)nc1CC(=O)O [2-[2-(4-fluorophenyl)-5-isopropyl-4-oxazolyl]acetic acid]	21%	42%	–	≥ 10%	–
–	CCOC(=O)Cc1nc(-c2ccc(F)cc2)oc1C(C)C [ethyl 2-[2-(4-fluorophenyl)-5-isopropyl-4-oxazolyl]acetate]	23%	33%	–	≥ 10%	–
–	Cc1oc(-c2ccc(Cl)cc2)nc1CC(=O)O [2-[2-(4-chlorophenyl)-5-methyl-4-oxazolyl]acetic acid]	14%	48%	–	–	–
–	CCCCCc1oc(-c2ccc(Cl)cc2)nc1CC(=O)OCC [ethyl 2-[2-(4-chlorophenyl)-5-n-pentyl-4-oxazolyl]acetate]	15%	52%	–	–	no mouse dies
–	CC(C)c1oc(-c2ccccc2)nc1CC(=O)O [2-(2-phenyl-5-isopropyl-4-oxazolyl)acetic acid]	–	–	97 ± 2%	≥ 10%	–
–	CC(C)Cc1oc(-c2ccc(F)cc2)nc1CC(=O)O [2-[2-(4-fluorophenyl)-5-isobutyl-4-oxazolyl]acetic acid]	11%	51%	–	–	–
–	CCOC(=O)Cc1nc(-c2ccc(F)cc2)oc1CC(C)C [ethyl 2-[2-(4-fluorophenyl)-5-isobutyl-4-oxazolyl]acetate]	13%	66%	–	≥ 10%	–
–	CCOC(=O)Cc1nc(-c2ccc(Cl)cc2)oc1C(C)C [ethyl 2-[2-(4-chlorophenyl)-5-isopropyl-4-oxazolyl]acetate]	18%	55%	–	≥ 10%	–
–	CCOC(=O)Cc1nc(-c2ccc(Cl)cc2)oc1CC(C)C [ethyl 2-[2-(4-chlorophenyl)-5-isobutyl-4-oxazolyl]acetate]	–	–	–	≥ 10%	–
–	CC(C)c1oc(-c2ccc(Cl)cc2)nc1CC(=O)O [2-[2-(4-chlorophenyl)-5-isopropyl-4-oxazolyl]acetic acid]	12%	39%	–	≥ 10%	–
